{
  "source": "paper PMC11662004",
  "about": "(Communications Chemistry, 2024)",
  "biological_target": "T1, NgTet1 (Naegleria gruberi, UniProt D2W6T1)",
  "T1 construct": "His6-tagged full-length Naegleria gruberi NgTet1 (321 a. a.) protein with a thrombin cleavage site; made in house; host or cells: E. coli BL21(DE3)",
  "T1 sequence (D2W6T1 1-321)": "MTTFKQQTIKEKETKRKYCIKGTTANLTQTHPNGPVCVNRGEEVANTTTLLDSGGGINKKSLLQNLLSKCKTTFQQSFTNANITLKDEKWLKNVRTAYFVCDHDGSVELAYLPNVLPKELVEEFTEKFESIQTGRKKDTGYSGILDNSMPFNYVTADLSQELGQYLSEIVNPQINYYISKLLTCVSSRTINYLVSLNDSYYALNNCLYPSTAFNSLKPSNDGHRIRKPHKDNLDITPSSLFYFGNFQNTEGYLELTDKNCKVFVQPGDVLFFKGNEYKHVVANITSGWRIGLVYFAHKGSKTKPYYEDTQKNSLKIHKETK",
  "test": "biochemical",
  "details": "for IC50: 5 μM NgTet1, 50 μM 2OG; for normalised activity, %: NMR",
  "protocol": "Activity was normalised against reactions containing vehicle (DMSO). […] AS data shown as the mean of three experimental replicates (n = 3; mean ± SD); ^1H NMR data plotted from two independent replicates (n = 2); tabulated data reported as the mean of two and three independent replicates for ^1H NMR and AS, respectively (n = 2–3, SD reported for n = 3). N. d.: not determined; AS: AlphaScreen.\nAll ^1H NMR spectra were recorded at 25 °C using D2O as a reference for internal deuterium lock on a Bruker Avance III 700 MHz equipped with an inverse TCI cryoprobe in 3 or 5 mm diameter tubes with a total sample volume of 160 or 565 μL, respectively. The water signal was reduced using Perfect Echo excitation sculpting suppression. Chemical shifts are reported in ppm relative to D2O (δH = 4.70 ppm).\nNgTet1 was pre-incubated with inhibitor dilution series in DMSO-d6 at room temperature for 10 min (50 mM Tris-d11 [pH 7.5], 2% v/v DMSO-d6). Reactions were initiated by the addition of appropriate cofactors and DNA. […] The reactions were quenched by the addition of 9 mM NOG and 9 mM ZnCl2 in 90 mM Tris-d11 [pH 7.5] (20 μL) within the enzyme linear activity window (determined in Figure. S10). Samples were transferred to NMR tubes and subjected to ^1H NMR analysis. Data were processed as described above. Inhibition data was normalised to reactions containing vehicle only (1% v/v DMSO-d6) and fitted using “log(inhibitor) vs. response - Variable slope (four parameters)” non-linear regression model on GraphPad Prism 5.\nActivity was normalised against reactions containing vehicle only (100% activity). Data is shown as the mean of 2 independent replicates (n = 2; […]\nFig. S10 Determination of linear NgTet1 enzymatic activity windows for inhibitor characterisation. a 1H NMR succinate detection time courses with no DNA, 5HC DNA (double- […]\ncomplementary 5'-ACC AC5mC GGT GGT-3'). b AlphaScreen 5hmC detection time course using […]\ncourses shown. 1H NMR reaction conditions: 5 μM NgTet1, 2 mM sodium L-ascorbate, 100 μM […]\nv/v D2O. DNA was added to a final concentration of 20 μM of double-stranded DNA. […]",
  "note": "Values joined by “and” are separate entries in the source; they are usually repeats but may differ in a detail not shown here. Identical values can stand only once. Like-named read-outs stand apart in the source and are kept apart here.",
  "data": [
    {"smiles": "O=C(O)CNC(=O)C(=O)O", "note": "[NOG, N-oxalylglycine]", "values": [
      {"measurement": "potency reduced in the presence of non-substrate 5HC DNA", "setting": "1H NMR, uncoupled 2OG turnover", "result": 5, "unit": "fold"},
      {"measurement": "IC50", "setting": "2OG decarboxylation with 20 µM 5HC DNA, read-out: IC50, 5HC DNA, NMR", "result": 23.4, "unit": "µM"},
      {"measurement": "IC50", "setting": "2OG decarboxylation with 20 µM 5mC DNA, read-out: IC50, 5mC DNA, NMR", "result": 4.9, "unit": "µM"},
      {"measurement": "normalised activity, %", "setting": "5HC DNA, -Log[inhibitor] (M) 3", "result": "9.08% and 0%"},
      {"measurement": "normalised activity, %", "setting": "5HC DNA, -Log[inhibitor] (M) 3.5", "result": "14.96% and 8.89%"},
      {"measurement": "normalised activity, %", "setting": "5HC DNA, -Log[inhibitor] (M) 4", "result": "27.44% and 19.98%"},
      {"measurement": "normalised activity, %", "setting": "5HC DNA, -Log[inhibitor] (M) 4.5", "result": "46.19% and 37.58%"},
      {"measurement": "normalised activity, %", "setting": "5HC DNA, -Log[inhibitor] (M) 5", "result": "68.86% and 59.35%"},
      {"measurement": "normalised activity, %", "setting": "5HC DNA, -Log[inhibitor] (M) 5.5", "result": "85.6% and 77.94%"},
      {"measurement": "normalised activity, %", "setting": "5HC DNA, -Log[inhibitor] (M) 6", "result": "94.01% and 91.73%"},
      {"measurement": "normalised activity, %", "setting": "5HC DNA, -Log[inhibitor] (M) 6.5", "result": "98.78% and 94.75%"},
      {"measurement": "normalised activity, %", "setting": "5HC DNA, -Log[inhibitor] (M) 7", "result": "98.78% and 99.12%"},
      {"measurement": "normalised activity, %", "setting": "5HC DNA, -Log[inhibitor] (M) 7.5", "result": "97.21% and 98.4%"},
      {"measurement": "potency improved relative to AS assay", "setting": "5mC DNA substrate-saturating conditions, 1H NMR", "result": 40, "unit": "fold"},
      {"measurement": "normalised activity, %", "setting": "5mC DNA, -Log[inhibitor] (M) 2.47712", "result": "3.86% and 2.962%"},
      {"measurement": "normalised activity, %", "setting": "5mC DNA, -Log[inhibitor] (M) 2.95424", "result": "3.763% and 4.321%"},
      {"measurement": "normalised activity, %", "setting": "5mC DNA, -Log[inhibitor] (M) 3.43136", "result": "5.679% and 6.122%"},
      {"measurement": "normalised activity, %", "setting": "5mC DNA, -Log[inhibitor] (M) 3.90849", "result": "9.059% and 9.958%"},
      {"measurement": "normalised activity, %", "setting": "5mC DNA, -Log[inhibitor] (M) 4.38561", "result": "18.3792% and 18.5451%"},
      {"measurement": "normalised activity, %", "setting": "5mC DNA, -Log[inhibitor] (M) 4.86273", "result": "32.2896% and 33.1008%"},
      {"measurement": "normalised activity, %", "setting": "5mC DNA, -Log[inhibitor] (M) 5.33985", "result": "53.2739% and 54.7766%"},
      {"measurement": "normalised activity, %", "setting": "5mC DNA, -Log[inhibitor] (M) 5.81697", "result": "75.7036% and 73.0834%"},
      {"measurement": "normalised activity, %", "setting": "5mC DNA, -Log[inhibitor] (M) 6.29409", "result": "86.8413% and 87.2847%"},
      {"measurement": "normalised activity, %", "setting": "5mC DNA, -Log[inhibitor] (M) 6.77", "result": "92.8024% and 96.8118%"},
      {"measurement": "normalised activity, %", "setting": "5mC DNA, -Log[inhibitor] (M) 7.25", "result": "100.282% and 100.776%"},
      {"measurement": "normalised activity, %", "setting": "5mC DNA, -Log[inhibitor] (M) 7.73", "result": "99.5779% and 101.189%"},
      {"measurement": "normalised activity, %", "setting": "No DNA, -Log[inhibitor] (M) 2", "result": "1.894% and 2.62%"},
      {"measurement": "normalised activity, %", "setting": "No DNA, -Log[inhibitor] (M) 2.47712", "result": "5.905% and 12.6681%"},
      {"measurement": "normalised activity, %", "setting": "No DNA, -Log[inhibitor] (M) 3.43136", "result": "23.7146% and 37.124%"},
      {"measurement": "normalised activity, %", "setting": "No DNA, -Log[inhibitor] (M) 3.90849", "result": "40.5302% and 59.4882%"},
      {"measurement": "normalised activity, %", "setting": "No DNA, -Log[inhibitor] (M) 4.38561", "result": "74.4281% and 76.6397%"},
      {"measurement": "normalised activity, %", "setting": "No DNA, -Log[inhibitor] (M) 4.86273", "result": "97.4209% and 83.0858%"},
      {"measurement": "normalised activity, %", "setting": "No DNA, -Log[inhibitor] (M) 5.33985", "result": "104.499% and 99.5811%"},
      {"measurement": "normalised activity, %", "setting": "No DNA, -Log[inhibitor] (M) 5.81697", "result": "103.384% and 101.173%"},
      {"measurement": "normalised activity, %", "setting": "No DNA, -Log[inhibitor] (M) 6.29409", "result": "102.321% and 96.0908%"},
      {"measurement": "IC50", "setting": "uncoupled 2OG decarboxylation, no DNA, read-out: IC50, No DNA, NMR", "result": 118, "unit": "µM"}
    ]}
  ]
}
